# Experimental data reported in patent publication US6743583B2, “Identification of drugs and drug targets by detection of the stress response” (priority 2000, dated 2004).
# Experiments:
# [1] = system: Wildtype strain; assay: HSP26 promoter GFP-uv reporter stress response, fluorimeter; assay type: cell-based, Saccharomyces cerevisiae; set-up: key: F = fluorescent activity from hsp reporter construct, indicating stress response is induced; NF = no fluorescence, no induction of stress response; settings: predicted expectations
# Description: (§1) Stress response gene reporter constructs are generally constructed as follows: approximately 500 bp to approximately 1,000 bp or more region upstream of the first start codon of the stress gene of interest (the region encompassing the stress response gene promoter) is fused to the coding region of a reporter polypeptide (e.g., GFP-uv in pRS316 (Sikorski and Hieter (1989) Genetics 122(1):19-27, Clontech). In a specific exemplary construct, approximately 500 bp of the sequence upstream of the hsp26 gene were ligated to the coding region of GFP-uv in pRS316 to provide for expression of the GFP-uv reporter polypeptide under control of the HSP26 promoter.
# (§2) The above-described HSP26 construct and a control construct (containing no upstream HSP26 promoter sequence) is transformed into 4 strains: a wildtype strain and strains heterozygous for ALG7, HIS3, and TUB2. The his3 heterozygous strain is sensitive to 3-amino triazole; the alg7 heterozygous strain is sensitive to tunicamycin; and the tub2 heterozygous strain is sensitive to benomyl. The expression of hsp26 activity is then monitored using a fluorimeter. Comparisons (with predicted expectations) are as follows: […]
# [2] = system: his3 heterozygote; assay: as above; assay type: cell-based, Saccharomyces cerevisiae; set-up: key: F = fluorescent activity from hsp reporter construct, indicating stress response is induced; NF = no fluorescence, no induction of stress response; settings: predicted expectations
# Description: as §1
# (§3) 80% of all heterozygous deletion strains of Saccharomyces cerevisiae have been constructed. Heterozygous deletion strains were generated using homologous gene transplacement (Rothstein, R. (1991) Meth. Enzymol. 194:281-301) in wild-type diploid strains using standard methods. The resulting heterozygotes carry a deletion in one of the two copies of a given gene.
# as §2
# [3] = system: alg7 heterozygote; assay: as above; assay type: cell-based, Saccharomyces cerevisiae; set-up: key: F = fluorescent activity from hsp reporter construct, indicating stress response is induced; NF = no fluorescence, no induction of stress response; settings: predicted expectations
# Description: as §1, §3, §2
# [4] = system: tub2 heterozygote; assay: as above; assay type: cell-based, Saccharomyces cerevisiae; set-up: key: F = fluorescent activity from hsp reporter construct, indicating stress response is induced; NF = no fluorescence, no induction of stress response; settings: predicted expectations
# Description: as §1, §3, §2
# [5] = system: his3 heterozygous strain; settings: cited from earlier work
# [6] = system: yeast stress response genes; settings: published data, cited from earlier work
smiles,measurement,setting,value
"Nc1nc[nH]n1 [3-amino triazole, 3-amino-triazole]",fluorescent activity from hsp26 reporter construct,[1],F
same,fluorescent activity from hsp26 reporter construct,[2],NF
same,fluorescent activity from hsp26 reporter construct,[3],F
same,fluorescent activity from hsp26 reporter construct,[4],F
same,sensitivity of strain to drug,[5],sensitive
C=CC[C@@H]1/C=C(\C)C[C@H](C)C[C@H](OC)[C@H]2O[C@@](O)(C(=O)C(=O)N3CCCC[C@H]3C(=O)O[C@H](/C(C)=C/[C@@H]3CC[C@@H](O)[C@H](OC)C3)[C@H](C)[C@@H](O)CC1=O)[C@H](C)C[C@@H]2OC [FK506],fold induction of DDR48 (YMR173w),[6]; FK506 50 μM,1 fold
same,fold induction of HSP10 (YOR020C),[6]; FK506 50 μM,1 fold
same,fold induction of HSP12 (YFL014W),[6]; FK506 50 μM,1 fold
same,fold induction of HSP26 (YBR072W),[6]; FK506 50 μM,7.1 fold
same,fold induction of HSP30 (YCR021C),[6]; FK506 50 μM,2.3 fold
same,fold induction of HSP42 (YDR171w),[6]; FK506 50 μM,8.7 fold
same,fold induction of HSP60 (YLR259C),[6]; FK506 50 μM,1 fold
same,fold induction of HSP78 (YDR258C),[6]; FK506 50 μM,1 fold
same,fold induction of HSP82 (YPL240C),[6]; FK506 50 μM,1 fold
same,fold induction of HSP104 (YLL026W),[6]; FK506 50 μM,1 fold
same,fold induction of SSA1 (YAL005C),[6]; FK506 50 μM,1 fold
same,fold induction of UBC5 (YDR059c),[6]; FK506 50 μM,1.1 fold
same,fold induction of AMS1 (YGL156W),[6]; FK506 50 μm,2.2 fold
same,fold induction of GFA1 (YKL104C),[6]; FK506 50 μm,1 fold
same,fold induction of GSC2 (YGR032W),[6]; FK506 50 μm,1.1 fold
same,fold induction of HXT5 (YHR096C),[6]; FK506 50 μm,1.6 fold
same,fold induction of ISF1 (YMR081C),[6]; FK506 50 μm,5.4 fold
same,fold induction of PAI3 (YMR174C),[6]; FK506 50 μm,1 fold
same,fold induction of PRY1 (YJL079C),[6]; FK506 50 μm,1 fold
same,fold induction of PUT1 (YLR142W),[6]; FK506 50 μm,7.6 fold
same,fold induction of SNZ3 (YFL059W),[6]; FK506 50 μm,6.3 fold
same,fold induction of TSI1 (YLR178C),[6]; FK506 50 μm,1.3 fold
same,fold induction of YBL049W,[6]; FK506 50 μm,6.7 fold
same,fold induction of YDR018C,[6]; FK506 50 μm,8.9 fold
same,fold induction of YFL030W,[6]; FK506 50 μm,2 fold
same,fold induction of YFR026C,[6]; FK506 50 μm,3.7 fold
same,fold induction of YGR043C,[6]; FK506 50 μm,2.1 fold
same,fold induction of YIL042C,[6]; FK506 50 μm,2.7 fold
same,fold induction of YIL117C,[6]; FK506 50 μm,1 fold
same,fold induction of YJL144W,[6]; FK506 50 μm,7.6 fold
same,fold induction of YKL107W,[6]; FK506 50 μm,2.5 fold
same,fold induction of YLR053C,[6]; FK506 50 μm,5.5 fold
same,fold induction of YLR080W,[6]; FK506 50 μm,5.5 fold
same,fold induction of YLR194C,[6]; FK506 50 μm,1 fold
same,fold induction of YMR040W,[6]; FK506 50 μm,1.6 fold
same,fold induction of YMR090W,[6]; FK506 50 μm,1.2 fold
same,fold induction of YMR107W,[6]; FK506 50 μm,5.9 fold
same,fold induction of YNL194C,[6]; FK506 50 μm,6.3 fold
same,fold induction of YPS3 (YLR121C),[6]; FK506 50 μm,2.5 fold
